Assay results: ChEMBL document CHEMBL1131428, “Immunophilins: beyond immunosuppression” (J Med Chem, 1998)

Tests used:
[1] = target: Peptidyl-prolyl cis-trans isomerase FKBP1A (Homo sapiens, UniProt P62942); assay: Compound was tested for its ability to inhibit FK506 binding protein 12 rotamase activity
Gallus gallus = species: Gallus gallus; assay: In Vitro neurotrophic effect was measured in cultured chick DRG sensory neurons.; type: functional; details: read-out: ED50 (the source's name)
Mus musculus [2] = assay: Compound was evaluated for the recovery of Striatal TH immunostaining in MPTP-treated mice by concurrent treatment after 40 mg/kg sc administration.; type: functional, organism-based; design: dose 40 mg/kg; details: at 40 mg/kg
Mus musculus [3] = assay: Compound was evaluated for the recovery of Striatal TH immunostaining in MPTP-treated mice by concurrent treatment after 4 mg/kg sc administration.; type: functional, organism-based; design: dose 4 mg/kg; details: at 4 mg/kg
Rattus norvegicus [4] = species: Rattus norvegicus; assay: Compound was evaluated for the regrowth of Striatal dopamine neurons in 6HODA-lesioned rats at 1h.; type: functional, organism-based
Rattus norvegicus [5] = species: Rattus norvegicus; assay: Compound was evaluated for the regrowth of Striatal dopamine neurons in 6HODA-lesioned rats at 7 days; type: functional, organism-based
Rattus norvegicus [6] = species: Rattus norvegicus; assay: Compound was evaluated for the regrowth of Striatal dopamine neurons in 6HODA-lesioned rats at 60 days; type: functional, organism-based
Rattus norvegicus [7] = species: Rattus norvegicus; assay: Compound was evaluated for the regrowth of Striatal dopamine neurons in 6HODA-lesioned rats at 120 days; type: functional, organism-based
Rattus norvegicus [8] = species: Rattus norvegicus; assay: Compound was evaluated for the regrowth of Striatal dopamine neurons in 6HODA-lesioned rats at 28 days; type: functional, organism-based
Rattus norvegicus [9] = assay: Mean axonal area to promote nerve regeneration in rats with lesioned sciatic nerves was measured after 1 mg/kg sc daily administration.; type: functional; details: route subcutaneous
Rattus norvegicus [10] = assay: Mean axonal area to promote nerve regeneration in rats with lesioned sciatic nerves was measured after 2 mg/kg sc daily administration.; type: functional; details: route subcutaneous
Rattus norvegicus [11] = assay: Mean axonal area to promote nerve regeneration in rats with lesioned sciatic nerves was measured after 5 mg/kg sc daily administration.; type: functional; details: route subcutaneous
Rattus norvegicus [12] = assay: Mean axonal area to promote nerve regeneration in rats with lesioned sciatic nerves was measured after 10 mg/kg sc daily administration.; type: functional; details: route subcutaneous
Rattus norvegicus [13] = assay: Axonal regeneration rate to promote nerve regeneration in rats with lesioned sciatic nerves was measured after 10 mg/kg sc daily administration.; type: functional; details: route subcutaneous
Rattus norvegicus [14] = assay: Axonal regeneration rate to promote nerve regeneration in rats with lesioned sciatic nerves was measured after 1 mg/kg sc daily administration.; type: functional; details: route subcutaneous
Rattus norvegicus [15] = assay: Axonal regeneration rate to promote nerve regeneration in rats with lesioned sciatic nerves was measured after 5 mg/kg sc daily administration.; type: functional; details: route subcutaneous

Chain of Peptidyl-prolyl cis-trans isomerase FKBP1A (P62942 whole entry): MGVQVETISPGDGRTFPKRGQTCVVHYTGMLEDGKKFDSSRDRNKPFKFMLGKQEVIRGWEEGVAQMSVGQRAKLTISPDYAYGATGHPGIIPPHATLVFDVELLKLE

Compound | Ki [1] | EC50 (Gallus gallus) | other results
CO[C@H]1C[C@@H]2CC[C@@H](C)[C@@](O)(O2)C(=O)C(=O)N2CCCC[C@H]2C(=O)O[C@H]([C@H](C)C[C@@H]2CC[C@@H](O)[C@H](OC)C2)CC(=O)[C@H](C)/C=C(\C)[C@@H](O)[C@@H](OC)C(=O)[C@H](C)C[C@H](C)/C=C/C=C/C=C/1C [SIROLIMUS] |  | 0.5 nM | 
C/C=C/C[C@@H](C)[C@@H](O)[C@H]1C(=O)N[C@@H](CC)C(=O)N(C)CC(=O)N(C)[C@@H](CC(C)C)C(=O)N[C@@H](C(C)C)C(=O)N(C)[C@@H](C)C(=O)N[C@@H](C)C(=O)N[C@H](C)C(=O)N(C)[C@@H](CC(C)C)C(=O)N(C)[C@@H](CC(C)C)C(=O)N(C)[C@@H](C(C)C)C(=O)N1C | 50 nM |  | 
O=C(OCCCCc1ccccc1)C1CCCCN1S(=O)(=O)Cc1ccccc1 (stereo not given) |  | 0.03 nM | Recovery (Mus musculus [3]): 38%
O=C(OCCCc1cccnc1)C1CCCN1S(=O)(=O)Cc1ccccc1 (stereo not given) | 72 nM |  | Recovery (Mus musculus [3]): 44.3%
COC(=O)C(=O)N1CCCCC1C(=O)OCCCC1CCCCC1 (stereo not given) |  | > 10000 nM | 
Cc1ccc(S(=O)(=O)N2CCCCC2C(=O)OCCCCc2ccccc2)cc1 (stereo not given) |  |  | Recovery (Mus musculus [3]): 44.2%
CC(C)(C)C(=O)C(=O)N1CCCCC1C(=O)OC(CCCc1ccccc1)CCCc1ccccc1 (stereo not given) |  |  | Recovery (Mus musculus [2]): 43.8%
CCC(C)(C)C(=O)C(=O)N1CCCC1C(=O)OCCCc1cccnc1 (stereo not given) | 7.5 nM | 0.05 nM | Recovery (Rattus norvegicus [4]): 34.2%; Recovery (Rattus norvegicus [5]): 25.5%; Recovery (Rattus norvegicus [6]): 17.3%; Recovery (Rattus norvegicus [7]): 19.5%; Recovery (Mus musculus [2]): 67.5%; Recovery (Rattus norvegicus [8]): 28.1%
CCOC(=O)C1CCCCN1C(=O)C(=O)OC (stereo not given) | > 10000 nM |  | 
CC(C)(C)C(=O)C(=O)N1CCCCC1C(=O)OC1C2CC3CC(C2)CC1C3 (stereo not given) | 78 nM | 0.11 nM | 
C=CC[C@@H]1/C=C(\C)CC(C)C[C@H](OC)[C@H]2O[C@@](O)(C(=O)C(=O)N3CCCC[C@H]3C(=O)O[C@H](/C(C)=C/[C@@H]3CC[C@@H](O)[C@H](OC)C3)[C@H](C)[C@@H](O)CC1=O)[C@H](C)C[C@@H]2OC (single isomer, unassigned) [TACROLIMUS ANHYDROUS] |  | 0.5 nM | Mean axonal area (Rattus norvegicus [9]): 67; Mean axonal area (Rattus norvegicus [10]): 83; Mean axonal area (Rattus norvegicus [11]): 120; Mean axonal area (Rattus norvegicus [12]): 100; Axonal regeneration rate (Rattus norvegicus [13]): 29; Axonal regeneration rate (Rattus norvegicus [14]): 16; Axonal regeneration rate (Rattus norvegicus [15]): 34
CCOC(=O)C1CCCCN1C(=O)C(C)=O (stereo not given) | > 10000 nM | > 10000 nM | 
O=C(OCCCc1cccnc1)C1CCCN1C(=S)NC1C2CC3CC(C2)CC1C3 (stereo not given) | 116 nM | 0.14 nM | Recovery (Mus musculus [3]): 52.3%
COC(=O)C1CCCCN1C(=O)C(=O)c1ccccc1 (stereo not given) | > 10000 nM | > 10000 nM | 
O=C(C(=O)N1CCCCC1C(=O)OC(CCCc1ccccc1)CCCc1ccccn1)c1ccccc1 (stereo not given) | 50 nM | 0.063 nM | 
Cc1ccc(S(=O)(=O)N2CCCCC2C(=O)OC(CCCc2ccccc2)CCCc2ccccc2)cc1 (stereo not given) | 332 nM | 1 nM | 
O=C(C(=O)N1CCCCC1C(=O)OCCCC1CCCCC1)C1CCCCC1 (stereo not given) | 760 nM | 1 nM | 
CC(C)(C)C(=O)C(=O)N1CCCCC1C(=O)OCCCc1ccccc1 (stereo not given) |  |  | Recovery (Mus musculus [2]): 32.4%
O=C(OCCCc1cccnc1)C1CCCN1C(=S)NC1CCCCC1 (stereo not given) | 131 nM | 0.3 nM | Recovery (Mus musculus [3]): 56.1%
O=C(OCCCc1cccnc1)C1CCCN1C(=O)NC1CCCCC1 (stereo not given) | 1480 nM |  | Recovery (Mus musculus [3]): 59.8%
CC[C@@H]1/C=C(/C)[C@@H](O)[C@@H](C)C[C@H](OC)[C@H]2O[C@@](O)(C(=O)C(=O)N3CCCC[C@H]3C(=O)O[C@H](/C(C)=C/[C@@H]3CC[C@@H](O)[C@H](OC)C3)[C@H](C)[C@@H](O)CC1=O)[C@H](C)C[C@@H]2OC | 0.7 nM | 5 nM | 
COc1cc(C(=O)C(=O)N2CCCCC2C(=O)OC(CCCc2ccccc2)CCCc2ccccn2)cc(OC)c1OC (stereo not given) |  | 0.05 nM | 
CCC(C)(C)C(=O)C(=O)N1CCCCC1C(=O)OCCCc1ccccc1 (stereo not given) | 250 nM |  | 
CCC(C)(C)C(=O)C(=O)N1CCCCC1C(=O)OC(CCc1ccccc1)CCc1ccccc1 (stereo not given) |  |  | Recovery (Mus musculus [2]): 71.6%
O=C(OCCCCc1ccccc1)C1CCCCN1S(=O)(=O)c1ccccc1 (stereo not given) |  |  | Recovery (Mus musculus [3]): 29.2%
O=C(OC(CCCc1ccccc1)Cc1ccccc1)C1CCCCN1S(=O)(=O)Cc1ccccc1 (stereo not given) | 107 nM | 0.133 nM | 
CCC(C)(C)C(=O)C(=O)N1CCCC1C(=O)OCCCc1ccccc1 (stereo not given) | 42 nM |  | 
O=C(C(=O)N1CCCCC1C(=O)OC(CCCc1ccccc1)CCCc1ccccc1)c1ccccc1 (stereo not given) | 3 nM |  | 
COc1cc(C(=O)C(=O)N2CCCCC2C(=O)OC(CCCc2ccccc2)CCc2cccnc2)cc(OC)c1OC (stereo not given) |  | 0.95 nM | 

Further lines, with some results ahead:

Ki [1] | EC50 (Gallus gallus) | Compound | other results
742 nM | 1 nM | CCC(C)(C)NC(=O)N1CCCC1C(=O)OCCCc1cccnc1 (stereo not given) | 
8000 nM | > 10000 nM | COC(=O)C(=O)N1CCCCC1C(=O)OCc1ccccc1 (stereo not given) | 
250 nM | 2 nM | CCC(C)(C)C(=O)C(=O)N1CCCC1C(=O)OCCCc1cc(OC)ccc1OC (stereo not given) | 
130 nM | 8.5 nM | CCC(C)(C)C(=O)C(=O)N1CCCCC1C(=O)OCCCc1cccnc1 (stereo not given) | 
24 nM |  | COc1ccc(CCCCOC(=O)C2CCCCN2C(=O)C(=O)C(C)(C)C)cc1 (stereo not given) | Recovery (Mus musculus [2]): 58.9%
120 nM |  | CCC(C)(C)C(=O)C(=O)N1CCCC1C(=O)OCCc1cc(OC)c(OC)c(OC)c1 (stereo not given) | 
32 nM | 0.29 nM | CC(C)(C)C(=O)C(=O)N1CCCCC1C(=O)OCCCC1CCCCC1 (stereo not given) | 
25 nM |  | CCC(C)(C)C(=O)C(=O)N1CCCCC1C(=O)OCCCc1cc(OC)c(OC)c(OC)c1 (stereo not given) | 
1300 nM |  | CCOC(=O)C1CCCCN1C(=O)C(=O)C(C)(C)CC (stereo not given) | 
8.3 nM |  | CCC(C)(C)C(=O)C(=O)N1CCCCC1C(=O)OCCC(c1ccccc1)c1ccccc1 (stereo not given) | 
 | > 10000 nM | COC(=O)C(=O)N1CCCCC1C(=O)OCCCCC1CCCCC1 (stereo not given) | 
95 nM |  | CC(C)(C)C(=O)C(=O)N1CCCC1C(=O)OCCCc1ccccc1 (stereo not given) | 
 | > 10000 nM | COC(=O)C(=O)N1CCCCC1C(=O)OCCCC1CCCC1 (stereo not given) | 
70 nM | 0.07 nM | CCC(C)CNC(=O)N1CCCCC1C(=O)OCCCc1cccnc1 (stereo not given) | Recovery (Mus musculus [3]): 27.5%
 | 0.3 nM | CCC(C)(C)C(=O)C(=O)N1CCCCC1C(=O)O[C@H](CCc1ccccc1)c1ccccc1 (stereo not given in full) | 
 | 0.06 nM | COc1cc(C(=O)C(=O)N2CCCCC2C(=O)OCCCc2c[nH]c3ccccc23)cc(OC)c1OC (stereo not given) | 
725 nM | 0.8 nM | O=C(C(=O)N1CCCCC1C(=O)OCCCc1cccnc1)c1ccccc1 (stereo not given) | 
450 nM | 0.8 nM | CCC(C)(C)C(=O)C(=O)N1CCCC1C(=O)OC/C=C/c1cc(OC)ccc1OC (stereo not given) | 
 | 1 nM | CCC(C)(C)C(=O)C(=O)N1CCCCC1C(=O)OCCCC1CCCCC1 (stereo not given) | 
 | 2 nM | O=C(C(=O)N1CCCC1C(=O)OCCCc1cccnc1)C1CCCCC1 (stereo not given) | 
194 nM | 0.257 nM | CCC(C)(C)C(=O)C(=O)N1CCCC1C(=O)OCCCC1CCCCC1 (stereo not given) | 
12 nM | 2.5 nM | CCC(C)(C)C(=O)C(=O)N1CCCCC1C(=O)OCCCc1cc(OC)ccc1OC (stereo not given) | 
15 nM | 0.17 nM | CCC(OC(=O)C1CCCCN1C(=O)C(=O)C(C)(C)CC)C(CCc1ccccc1)c1ccc(OC)cc1 (stereo not given) | 
210 nM | 0.82 nM | O=C(C(=O)N1CCCCC1C(=O)OCCCc1ccccc1)C1CCCCC1 (stereo not given) | 
170 nM | 10 nM | CCC(C)(C)C(=O)C(=O)N1CCCC1C(=O)OCCCc1ccc2c(c1)OCO2 (stereo not given) | 
103 nM | 6 nM | COc1ccc(CCCCOC(=O)C2CCCCN2C(=O)C(=O)C2CCCCC2)cc1 (stereo not given) | 
 | 0.03 nM | COc1ccc(CCCCOC(=O)C2CCCCN2C(=O)C(=O)c2cc(OC)c(OC)c(OC)c2)cc1 (stereo not given) | 
195 nM | 0.075 nM | CCC(C)(C)C(=O)C(=O)N1CCCC1C(=O)OCCCc1ccccn1 (stereo not given) | 
60 nM |  | CCC(C)(C)C(=O)C(=O)N1CCCCC1C(=O)OCCCCc1ccc(OC)cc1 (stereo not given) | 
3 nM |  | CC(C)(C)C(=O)C(=O)N1CCCC1C(=O)OCCCc1cccnc1 (stereo not given) | 
